pIC50: −log10 of the molar value.
Target: T1, Dopamine transporter (Rattus norvegicus, UniProt P23977)
T1 construct: from tissue; host or cells: brain
Experiment: not given
Conditions: read-out: Dopamine [3H]WIN 35,428 IC50; brain; cited from earlier work

T1 sequence (P23977 whole entry): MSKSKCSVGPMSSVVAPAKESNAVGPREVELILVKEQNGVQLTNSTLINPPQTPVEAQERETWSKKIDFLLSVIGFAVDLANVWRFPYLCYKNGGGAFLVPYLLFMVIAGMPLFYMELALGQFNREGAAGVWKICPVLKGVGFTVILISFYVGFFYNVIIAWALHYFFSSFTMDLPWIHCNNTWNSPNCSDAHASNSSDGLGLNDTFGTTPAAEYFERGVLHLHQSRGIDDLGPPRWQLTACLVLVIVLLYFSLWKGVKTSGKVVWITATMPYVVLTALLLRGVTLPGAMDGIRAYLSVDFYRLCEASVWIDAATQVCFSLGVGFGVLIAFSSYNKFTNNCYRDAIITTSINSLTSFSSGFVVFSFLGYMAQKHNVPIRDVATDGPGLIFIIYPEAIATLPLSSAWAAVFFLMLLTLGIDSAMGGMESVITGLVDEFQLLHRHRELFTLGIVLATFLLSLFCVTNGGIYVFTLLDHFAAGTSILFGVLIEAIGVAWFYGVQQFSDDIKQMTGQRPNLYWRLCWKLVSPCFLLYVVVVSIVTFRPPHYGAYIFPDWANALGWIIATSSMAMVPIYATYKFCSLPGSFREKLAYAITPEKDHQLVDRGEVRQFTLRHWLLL

Row | SMILES | pIC50
1 | CC(C)OC(=O)C1C(c2ccc(I)cc2)CC2CCC1N2C (stereo not shown) [RTI-121] | 9.40

Test system: discriminative stimulus effect of nicotine
Experiment: Nicotine drug discrimination
Format: in vivo
Conditions: saline pretreatment, nicotine 0.4 mg/kg, rats
Method: Rats were individually housed in a temperature-controlled environment and were maintained on a diet (Agway Rodent Chow) that restricted their body weight to approximately 85% of their free feeding weight. Water was available ad libitum in the home cages. A two-lever operant drug nation paradigm (VI 15) was carried out in eight operant chambers (4 Lafayette model 80001 and 4 BRS/LVIE model s 002). Reinforcement was a Bioserv 45-mg precision dustless pellet. Data were collected automatically by two Commodore 64 microcomputers.
Rats were placed in an operant chamber 5 min after injections. […] Animals were required to meet a criterion of three successive days of 80% or greater correct-lever responding before testing was initiated. Injections were given 5 min before placing the animal in the operant chamber. The schedule of injections, was determined using a Latin Square design. Dose-response curves were determined for nicotine 5 min after s.c. injections.

Row | SMILES | Drug discrimination % Test (Mean ± SE) [%]
2 | CN1CCCC1c1cccnc1 (single isomer, unassigned; (-)) [Nicotine, (−)-Nicotine, reference compound] | 87 ± 8

Test system: cocaine-induced hyperactivity
Experiment: Locomotor activity, cocaine-induced hyperactivity
Format: in vivo, mice
Conditions: doses higher than 1 mg/kg
Method: Locomotor Activity. […] Interruptions of the photocell beams (two banks of eight cells each) were then recorded for the next 30 min. Data were expressed as number of photocell interruptions.

Row | SMILES | Effect of higher doses on mouse spontaneous activity
3 | CO[C@H]1CC=C2CCN3CCC4=C(CC(=O)OC4)[C@]23C1 [DHβE, Dihydro-β-erythroidine] | significantly decreased mouse spontaneous activity
4 | CNC1(C)C2CCC(C2)C1(C)C (stereo not shown) [mecamylamine] | significantly decreased mouse spontaneous activity

Test system: nicotine-induced hypothermia
Experiment: Blockade of nicotine-induced hypothermia (body temperature)
Format: in vivo, mice
Conditions: blocking nicotine-induced hypothermia, mice, systemic administration
Method: Body Temperature. Rectal temperature was measured by a thermistor probe (inserted 24 mm) and digital thermometer (Yellow Springs Instrument Co., Yellow Springs, Ohio). Readings were taken just before and at 30 min after the s.c. injection of nicotine. For antagonism studies, mice were pretreated with either saline or various drugs 10 min before nicotine. The difference in rectal temperature before and after treatment was calculated for each mouse. The ambient temperature of the laboratory varied from 21 to 24° C. from day to day.
(§1) Data were analyzed statistically by an analysis of variance followed by the Fisher's P least-significant difference multiple comparison test. The null hypothesis was rejected at the […].

Row | SMILES | AD50 Hypothermia [μmol/hg]
5 | CC(C)OC(=O)C1C(c2ccc(I)cc2)CC2CCC1N2C (stereo not shown) [RTI-121] | 49

Same assay, conditions: mice

Row | SMILES | Blockade of nicotine-induced hypothermia (in words) | Fold less potent in blocking nicotine hypothermia than antinociception [fold]
6 | CC(C)OC(=O)C1C(c2ccc(I)cc2)CC2CCC1N2C (stereo not shown) [RTI-121] | significantly blocked | > 100

Test system: nicotine-induced seizures
Experiment: Nicotine-induced seizure activity
Format: in vivo, mice
Conditions: saline pretreatment, nicotine 9 mg/kg challenge
Method: Seizure Activity. Following s.c. injection of nicotine at a dose of 9 mg/kg, each animal was placed in a 30 cm×30 cm Plexiglass cage and observed for 5 min. […] This amount of time was chosen because seizures occur very quickly after nicotine administration. Results are expressed as percentage seizure.

Row | SMILES | % Seizures (Mean) [%]
7 | CN1CCCC1c1cccnc1 (single isomer, unassigned; (-)) [Nicotine, (−)-Nicotine, reference compound] | 100

Test system: nicotine-induced antinociception
Experiment: Blockade of nicotine-induced antinociception, tail-flick test
Format: in vivo, mice
Conditions: @ 74 μmol/hg, s.c.
Method: Anitinociception. The tail-flick method of D'Amour and Smith (1941) as modified by Dewey et al. (1970) was used. A control response (2-4 s) was determined for each animal before treatment, and a test latency was determined after drug administration. To minimize tissue damage, a maximum latency of 10 s was imposed. Antinociceptive response was calculated as percent maximum possible effect (% MPE), where % MPE=[((test-control)/(10-control))×100], Groups of 8 to 12 animals were used for each dose and for each treatment. Mice were tested 5 min after nicotine administration for the dose-response evaluation. Antagonism studies were carried out by pretreating the mice s.c. with either saline or various drugs at different times before nicotine. The animals were tested 5 min after administration of nicotine.
as §1

Row | SMILES | Tail-flick, % blockade @ dose [% @ 74]
8 | COC(=O)C(c1ccccc1)C1CCCCN1 (stereo not shown) [Methylphenidate, reference compound] | 5

Same assay, conditions: @ 75 μmol/hg, s.c.

Row | SMILES | Tail-flick, % blockade @ dose [% @ 75]
9 | CCN(CC)CC(=O)Nc1c(C)cccc1C [Lidocaine, reference compound] | 7
10 | CCN(CC)CCOC(=O)c1ccc(N)cc1 [Procaine, reference compound] | 5

Same assay, conditions: @ 86.7 μmol/hg, s.c.

Row | SMILES | Tail-flick, % blockade @ dose [% @ 86.7]
11 | CNCCC(Oc1ccc(C(F)(F)F)cc1)c1ccccc1 (stereo not shown) [Fluoxetine, reference compound] | 15

Same assay, conditions: Mus musculus, read-out: ED50 value of nicotine, antinociception

Row | SMILES | ED50 [mg/kg]
12 | CN1CCCC1c1cccnc1 (single isomer, unassigned; (-)) [Nicotine, (−)-Nicotine, reference compound] | 1.5

Same assay, conditions: blocking antinociception of nicotine 2.5 mg/kg, mice, systemic administration

Row | SMILES | AD50 Tail-Flick [μmol/hg]
13 | CC(C)OC(=O)C1C(c2ccc(I)cc2)CC2CCC1N2C (stereo not shown) [RTI-121] | 0.3

Same assay, conditions: s.c. administration, mice

Row | SMILES | AD50, nicotine-induced antinociception in tail-flick test [μmol/hg]
14 | CC(N)Cc1ccccc1 (stereo not shown) [Amphetamine, reference compound] | 36.9
15 | CC(NC(C)(C)C)C(=O)c1cccc(Cl)c1 (stereo not shown) [Bupropion, reference compound] | 8
16 | Cn1c(=O)c2c(ncn2C)n(C)c1=O [Caffeine, reference compound] | 32.4
17 | Fc1ccc(C(OCCN2CCN(CCCc3ccccc3)CC2)c2ccc(F)cc2)cc1 [GBR 12909, reference compound] | 8.4
18 | CNCCC(Oc1ccccc1OC)c1ccccc1 (stereo not shown) [Nisoxetine, reference compound] | 7.4
19 | CN1Cc2c(N)cccc2C(c2ccccc2)C1 (stereo not shown) [Nomifensine, reference compound] | 1.7

Same assay, conditions: tail-flick, mice

Row | SMILES | Blockade of nicotine-induced antinociception (in words) | Relative potency in blocking nicotine's antinociceptive effect (in words, comparator in the value) | Fold more potent than cocaine in blocking nicotine's antinociceptive effect [fold]
20 | CC(N)Cc1ccccc1 (stereo not shown) [Amphetamine, reference compound] | blocked nicotine-induced antinociception |  | 
21 | CC(NC(C)(C)C)C(=O)c1cccc(Cl)c1 (stereo not shown) [Bupropion, reference compound] | dose-dependently blocked | as potent as GBR 12909 | 
22 | Cn1c(=O)c2c(ncn2C)n(C)c1=O [Caffeine, reference compound] | blocked nicotine-induced antinociception |  | 
23 | CNCCC(Oc1ccc(C(F)(F)F)cc1)c1ccccc1 (stereo not shown) [Fluoxetine, reference compound] | failed to significantly block |  | 
24 | CCN(CC)CC(=O)Nc1c(C)cccc1C [Lidocaine, reference compound] | failed to significantly block |  | 
25 | COC(=O)C(c1ccccc1)C1CCCCN1 (stereo not shown) [Methylphenidate, reference compound] | failed to block |  | 
26 | CN1Cc2c(N)cccc2C(c2ccccc2)C1 (stereo not shown) [Nomifensine, reference compound] | dose-dependently blocked | five times more potent than GBR 12909 | 
27 | CCN(CC)CCOC(=O)c1ccc(N)cc1 [Procaine, reference compound] | failed to significantly block |  | 
28 | CC(C)OC(=O)C1C(c2ccc(I)cc2)CC2CCC1N2C (stereo not shown) [RTI-121] |  |  | 10
29 | COC(=O)[C@H]1[C@@H](OC(=O)c2ccccc2)C[C@@H]2CC[C@H]1[N+]2(C)C.[I-] [cocaine methiodide, reference compound] | failed to significantly block |  | 

Same assay, conditions: tail-flick, mice; listed as cocaine-methiodide

Row | SMILES | Blockade of nicotine-induced antinociception (in words)
30 | COC(=O)[C@H]1[C@@H](OC(=O)c2ccccc2)C[C@@H]2CC[C@H]1[N+]2(C)C.[I-] [cocaine methiodide, reference compound] | Lack of blockade

Target: T2, Norepinephrine transporter (Rattus norvegicus, UniProt Q63380)
T2 construct: from tissue; host or cells: brain
T2 sequence (Q63380 1-617): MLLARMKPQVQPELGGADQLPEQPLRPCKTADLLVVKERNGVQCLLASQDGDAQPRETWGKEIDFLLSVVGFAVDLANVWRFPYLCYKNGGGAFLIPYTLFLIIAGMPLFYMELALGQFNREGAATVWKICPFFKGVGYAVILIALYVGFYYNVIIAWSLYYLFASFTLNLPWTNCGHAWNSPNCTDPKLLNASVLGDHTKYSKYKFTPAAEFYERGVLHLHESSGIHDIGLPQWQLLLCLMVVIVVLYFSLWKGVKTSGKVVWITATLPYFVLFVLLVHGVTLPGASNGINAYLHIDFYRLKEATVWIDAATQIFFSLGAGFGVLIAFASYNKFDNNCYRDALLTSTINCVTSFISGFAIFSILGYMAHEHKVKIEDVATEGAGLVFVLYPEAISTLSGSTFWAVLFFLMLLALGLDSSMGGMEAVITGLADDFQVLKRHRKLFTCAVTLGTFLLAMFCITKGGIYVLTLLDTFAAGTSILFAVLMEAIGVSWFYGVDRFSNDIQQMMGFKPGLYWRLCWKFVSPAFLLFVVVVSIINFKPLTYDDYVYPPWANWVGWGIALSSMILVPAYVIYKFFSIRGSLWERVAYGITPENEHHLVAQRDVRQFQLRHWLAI
Experiment: not given
Conditions: read-out: Norepinephrine [3H]Nisoxetime IC50; brain; cited from earlier work

Row | SMILES | pIC50
31 | CC(C)OC(=O)C1C(c2ccc(I)cc2)CC2CCC1N2C (stereo not shown) [RTI-121] | 6.55

Reference: patent publication US6479509B1, “Method of promoting smoking cessation” (priority 2000, dated 2002)
